{
  "source": "ChEMBL document CHEMBL1138423",
  "about": "“TOMOCOMD-CARDD descriptors-based virtual screening of tyrosinase inhibitors: evaluation of different classification model combinations using bond-based linear indices” (Bioorg Med Chem, 2007)",
  "note": "pIC50: −log10 of the molar value.",
  "data": [
    {"molecular_target": "T1, Tyrosinase (Agaricus bisporus, UniProt O42713)", "T1 sequence (O42713 whole entry)": "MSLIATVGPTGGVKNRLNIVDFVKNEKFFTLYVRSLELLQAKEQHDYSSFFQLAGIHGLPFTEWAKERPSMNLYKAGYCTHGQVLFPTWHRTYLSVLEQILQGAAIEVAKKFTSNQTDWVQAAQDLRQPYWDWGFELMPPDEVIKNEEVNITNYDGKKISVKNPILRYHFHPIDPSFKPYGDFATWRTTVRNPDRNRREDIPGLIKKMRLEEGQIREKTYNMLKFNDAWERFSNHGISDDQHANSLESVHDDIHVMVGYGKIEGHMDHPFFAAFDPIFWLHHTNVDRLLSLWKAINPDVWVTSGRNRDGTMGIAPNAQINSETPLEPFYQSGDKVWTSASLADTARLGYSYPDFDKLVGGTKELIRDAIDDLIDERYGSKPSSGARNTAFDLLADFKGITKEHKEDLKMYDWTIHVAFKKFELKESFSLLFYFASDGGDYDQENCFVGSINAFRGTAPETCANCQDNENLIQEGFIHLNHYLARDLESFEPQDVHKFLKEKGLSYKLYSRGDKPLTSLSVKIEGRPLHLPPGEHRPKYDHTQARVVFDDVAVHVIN", "assay": "Inhibition of mushroom tyrosinase after 10 mins", "values": [
      {"smiles": "CC[C@]1(O)CC[C@H]2[C@@H]3CCC4=CC(=O)C=C[C@]4(C)[C@H]3CC[C@@]21C", "pIC50": 5.46},
      {"smiles": "CC[C@]1(O)CC[C@H]2[C@@H]3CCC4=CC(=O)CC[C@]4(C)[C@H]3[C@H](O)C[C@@]21C", "pIC50": 5.76},
      {"smiles": "CC[C@]1(O)CC[C@H]2[C@@H]3CCC4=CC(=O)CC[C@]4(C)[C@H]3CC[C@@]21C", "pIC50": 5.82},
      {"smiles": "C#CC1(O)CC[C@H]2[C@@H]3CCC4=CC(=O)C=C[C@]4(C)[C@H]3CC[C@@]21C", "note": "(single isomer, unassigned)", "pIC50": 5.10},
      {"smiles": "C#CC1(O)CC[C@H]2[C@@H]3CCC4=CC(=O)CC[C@]4(C)[C@H]3[C@H](O)C[C@@]21C", "note": "(single isomer, unassigned)", "pIC50": 5.23},
      {"smiles": "C#CC1(O)CC[C@H]2[C@@H]3CCC4=CC(=O)CC[C@]4(C)[C@H]3CC[C@@]21C", "note": "(single isomer, unassigned) [ETHISTERONE]", "pIC50": 5.58}
    ]}
  ]
}
